Results: US20060030730A1, “Purification and production methods of 1-aminocyclopropanecarboxylic acid” (Daicel Chemical Industries, Ltd., priority 2004, published 2006)

Test: Solubility of 1-aminocyclopropanecarboxylic acid in solvents
Format: physicochemical

- solubility in methanol (solvent methanol): about 1.0 % (wt/wt)
- solubility in organic acid having one to five carbon atoms (solvent: organic acid having one to five carbon atoms (e.g. acetic acid)): highly soluble
Compound: NC1(C(=O)O)CC1 [1-aminocyclopropanecarboxylic acid]
